From US10227344B2, “CK2 inhibitors, compositions and methods thereof” (Polaris Pharmaceuticals, Inc., priority 2016, dated 2019)
Structures can show the parent of a compound that is named as a salt.

Molecular target: purified CK2α enzyme (Homo sapiens, UniProt P68400)
Assay: CK2 Protein Kinase Inhibition Assay (coupled PK/LDH assay)
Format: biochemical
Settings: CK2 enzyme 25 nM, 100 μM ATP, 37° C., Morrison equation
Protocol: A coupled PK (pyruvate kinase)/LDH (lactate dehydrogenase) assay was used to measure compounds' ability to inhibit purified CK2α enzyme.
The ADP product of kinase CK2a is the cofactor for PK. Phospho(enol)pyruvate (PEP) PEP is metabolized by pyruvate kinase to yield pyruvate, which is the substrate for LDH.
Serially diluted compounds were pre-incubated for 10 min at 37° C. with and 1.5 mM […] peptide substrate, 6 U/ml PK and 10 U/ml LDH (purchased from Sigma-Aldrich), 100 μM ATP, 1.2 mM NADH, 4 mM PEP in the reaction buffer (50 mM Tris (pH 8.25), 0.1 M NaCl, 10 mM magnesium acetate). The reaction was initiated by the addition of an equal volume of purified CK2 enzyme (final concentration 25 nM) diluted in the reaction buffer. Absorbance at 340 nm was measured overtime (for 30 min) at 37° C.; as NADH was converted to NAD+ the absorbance decreases. Absorbance decrease rate (per min) was plotted against the compound concentration and Ki is determined by GraphPad Prism using Morrison equation. All data points were performed in triplicate and each compound was tested in at least two separate experiments.
To this end, K, values of less than 2.5 nM are labelled as “+++”, from 2.5 nM to 10 nM are labelled as “++”, and greater than 10 nM are labelled as “+”.

purified CK2α enzyme, sequence (P68400 whole entry): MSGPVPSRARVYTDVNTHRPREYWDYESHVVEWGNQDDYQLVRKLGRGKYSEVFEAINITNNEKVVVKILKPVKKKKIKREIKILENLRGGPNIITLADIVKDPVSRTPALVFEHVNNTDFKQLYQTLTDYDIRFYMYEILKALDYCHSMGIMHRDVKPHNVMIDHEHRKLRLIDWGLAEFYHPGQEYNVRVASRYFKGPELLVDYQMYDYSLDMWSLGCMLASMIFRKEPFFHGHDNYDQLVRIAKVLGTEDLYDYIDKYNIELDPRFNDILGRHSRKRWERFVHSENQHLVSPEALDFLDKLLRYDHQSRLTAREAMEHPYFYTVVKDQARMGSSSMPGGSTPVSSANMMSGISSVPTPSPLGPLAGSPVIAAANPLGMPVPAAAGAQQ

Row | SMILES | Ki
1 | C[S+]([O-])Cc1cc(Nc2cc(NC3CC3)n3ncc(C#N)c3n2)ccc1N1CC[C@H](N)C1 (stereo partly drawn) [Example 23, 5-((4-((S)-3-Aminopyrrolidin-1-yl)-3-(((R,S)-methylsulfinyl)methyl)phenyl)amino)-7-(cyclopropylamino)pyrazolo[1,5-a]pyrimidine-3-carbonitrile mono trifluoroacetic acid salt] | < 2.5 nM
2 | C[S+]([O-])Cc1cc(Nc2cc(NC3CC3)n3ncc(C#N)c3n2)ccc1C1=CCNC1 (racemic) [Example 62, (±)-7-(Cyclopropylamino)-5-((4-(2,5-dihydro-1H-pyrrol-3-yl)-3-((methylsulfinyl)methyl)phenyl)amino)pyrazolo[1,5-a]pyrimidine-3-carbonitrile mono trifluoroacetic acid salt] | 2.5 to 10 nM
3 | C[S+]([O-])Cc1cc(Nc2cc(Nc3ccccn3)n3ncc(C#N)c3n2)ccc1C1CC1 (racemic) [Example 54, (±)-5-((4-Cyclopropyl-3-((methylsulfinyl)methyl)phenyl)amino)-7-(pyridin-2-ylamino)pyrazolo[1,5-a]pyrimidine-3-carbonitrile] | < 2.5 nM
4 | C[S+]([O-])Cc1cc(Nc2cc(NC3CC3)n3ncc(C#N)c3n2)ccc1CN (racemic) [Example 15, (±)-5-((4-(Aminomethyl)-3-((methylsulfinyl)methyl)phenyl)amino)-7-(cyclopropylamino)pyrazolo[1,5-a]pyrimidine-3-carbonitrile mono trifluoroacetic acid salt] | 2.5 to 10 nM
5 | CN(CC(C)(C)N)c1ccc(Nc2cc(NC3CC3)n3ncc(C#N)c3n2)cc1C[S+](C)[O-] (racemic) [Example 67, (±)-5-((4-((2-Amino-2-methylpropyl)(methyl)amino)-3-((methylsulfinyl)methyl)phenyl)amino)-7-(cyclopropylamino)pyrazolo[1,5-a]pyrimidine-3-carbonitrile mono trifluoroacetic acid salt] | < 2.5 nM
6 | CS(=O)(=O)Cc1cc(Nc2cc(NC3CC3)n3ncc(C#N)c3n2)ccc1C1(CN)CC1 [Example 39, 5-((4-(1-(Aminomethyl)cyclopropyl)-3-((methylsulfonyl)methyl)phenyl)amino)-7-(cyclopropylamino)pyrazolo[1,5-a]pyrimidine-3-carbonitrile mono trifluoroacetic acid salt] | < 2.5 nM
7 | C[S+]([O-])Cc1cc(Nc2cc(Nc3ccc(N)cn3)n3ncc(C#N)c3n2)ccc1N1CC[C@H](N)C1 (mixture of isomers) [Example 68, (±)-7-((5-Aminopyridin-2-yl)amino)-5-((4-((S)-3-aminopyrrolidin-1-yl)-3-((methylsulfinyl)methyl)phenyl)amino)pyrazolo[1,5-a]pyrimidine-3-carbonitrile] | < 2.5 nM

Continued, values first:

Row | Ki | SMILES
8 | < 2.5 nM | C[S+]([O-])Cc1cc(Nc2cc(NC3CC3)n3ncc(C#N)c3n2)ccc1CCN (racemic) [Example 8, (±)-5-((4-(2-Aminoethyl)-3-((methylsulfinyl)methyl)phenyl)amino)-7-(cyclopropylamino)pyrazolo[1,5-a]pyrimidine-3-carbonitrile mono trifluoroacetic acid salt]
9 | 2.5 to 10 nM | C[S+]([O-])Cc1cc(Nc2cc(NC3CC3)n3ncc(C#N)c3n2)ccc1C1(N)CC1 (racemic) [Example 59, (±)-5-((4-(1-Aminocyclopropyl)-3-((methylsulfinyl)methyl)phenyl)amino)-7-(cyclopropylamino)pyrazolo[1,5-a]pyrimidine-3-carbonitrile mono trifluoroacetic acid salt]
10 | < 2.5 nM | CN(C)Cc1ccc(Nc2cc(Nc3ccc(C4CC4)c(C[S+](C)[O-])c3)nc3c(C#N)cnn23)nc1 (racemic) [Example 69, (±)-5-((4-Cyclopropyl-3-((methylsulfinyl)methyl)phenyl)amino)-7-((5-((dimethylamino)methyl)pyridin-2-yl)amino)pyrazolo[1,5-a]pyrimidine-3-carbonitrile]
11 | 2.5 to 10 nM | CS(=N)(=O)Cc1cc(Nc2cc(NC3CC3)n3ncc(C#N)c3n2)ccc1Cl (racemic) [Example 12, (±)-5-((4-Chloro-3-((S-methylsulfonimidoyl)methyl)phenyl)amino)-7-(cyclopropylamino)pyrazolo[1,5-a]pyrimidine-3-carbonitrile]
12 | 2.5 to 10 nM | CN(CCN)c1ccc(Nc2nc(NC3CC3)c3ncc(C#N)n3n2)cc1C[S+](C)[O-] (racemic) [Example 49, (±)-2-((4-((2-aminoethyl)(methyl)amino)-3-((methylsulfinyl)methyl)phenyl)amino)-4-(cyclopropylamino)imidazo[2,1-f][1,2,4]triazine-7-carbonitrile mono trifluoroacetic acid salt]
13 | 2.5 to 10 nM | CN(CCN)c1ccc(Nc2nc(NC3CC3)n3ncc(C#N)c3n2)cc1CS(C)(=O)=O [Example 52, 2-((4-((2-aminoethyl)(methyl)amino)-3-((methylsulfonyl)methyl)phenyl)amino)-4-(cyclopropylamino)pyrazolo[1,5-a][1,3,5]triazine-8-carbonitrile mono trifluoroacetic acid salt]

System: not given
Assay: not given
Settings: not given

Row | SMILES | melting point
14 | C/C(=C\CN)c1ccc(Nc2cc(NC3CC3)n3ncc(C#N)c3n2)cc1C[S+](C)[O-] (racemic) (as salt: trifluoroacetic acid salt) [Example 60, (±)-(E)-5-((4-(4-aminobut-2-en-2-yl)-3-((methylsulfinyl)methyl)phenyl)amino)-7-(cyclopropylamino)pyrazolo[1,5-a]pyrimidine-3-carbonitrile mono trifluoroacetic acid salt] | 249 to 253 °C
15 | CN(CCN)c1ccc(Nc2nc(NC3CC3)c3ncc(C#N)n3n2)cc1C[S+](C)[O-] (racemic) (as salt: trifluoroacetic acid salt) [Example 49, (±)-2-((4-((2-aminoethyl)(methyl)amino)-3-((methylsulfinyl)methyl)phenyl)amino)-4-(cyclopropylamino)imidazo[2,1-f][1,2,4]triazine-7-carbonitrile mono trifluoroacetic acid salt] | 93 to 97 °C
16 | C[S+]([O-])Cc1cc(Nc2cc(NC3CC3)n3ncc(C#N)c3n2)ccc1C1CCCNC1 (racemic) (as salt: trifluoroacetic acid salt) [Example 61, (±)-7-(Cyclopropylamino)-5-((3-((methylsulfinyl)methyl)-4-((R,S)-piperidin-3-yl)phenyl)amino)pyrazolo[1,5-a]pyrimidine-3-carbonitrile mono trifluoroacetic acid salt] | 55 to 59 °C
17 | C[S+]([O-])Cc1cc(Nc2cc(NC3CC3)n3ncc(C#N)c3n2)ccc1C1CCNC1 (racemic) (as salt: trifluoroacetic acid salt) [Example 63, (±)-7-(Cyclopropylamino)-5-((3-((methylsulfinyl)methyl)-4-((R,S)-pyrrolidin-3-yl)phenyl)amino)pyrazolo[1,5-a]pyrimidine-3-carbonitrile mono trifluoroacetic acid salt] | 173 to 177 °C

More lines, now with the values ahead:

Row | melting point | SMILES
18 | 126 to 130 °C | CN(CC1(N)CC1)c1ccc(Nc2cc(NC3CC3)n3ncc(C#N)c3n2)cc1C[S+](C)[O-] (racemic) (as salt: trifluoroacetic acid salt) [Example 65, (±)-5-((4-(((1-Aminocyclopropyl)methyl)(methyl)amino)-3-((methylsulfinyl)methyl)phenyl)amino)-7-(cyclopropylamino)pyrazolo[1,5-a]pyrimidine-3-carbonitrile mono trifluoroacetic acid salt]
19 | 185 to 189 °C | CN(CC1(N)CC1)c1ccc(Nc2cc(NC3CC3)n3ncc(C#N)c3n2)cc1CS(C)(=O)=O (as salt: trifluoroacetic acid salt) [Example 66, 5-((4-(((1-aminocyclopropyl)methyl)(methyl)amino)-3-((methylsulfonyl)methyl)phenyl)amino)-7-(cyclopropylamino)pyrazolo[1,5-a]pyrimidine-3-carbonitrile mono trifluoroacetic acid salt]
20 | 119 to 123 °C | CC(CCN)c1ccc(Nc2cc(NC3CC3)n3ncc(C#N)c3n2)cc1C[S+](C)[O-] (racemic) (as salt: trifluoroacetic acid salt) [Example 64, (±)-5-((4-(R,S)-4-Aminobutan-2-yl)-3-((methylsulfinyl)methyl)phenyl)amino)-7-(cyclopropylamino)pyrazolo[1,5-a]pyrimidine-3-carbonitrile mono trifluoroacetic acid salt]
21 | 185 to 189 °C | C[S+]([O-])Cc1cc(Nc2cc(NC3CC3)n3ncc(C#N)c3n2)ccc1C1(N)CC1 (racemic) (as salt: trifluoroacetic acid salt) [Example 59, (±)-5-((4-(1-Aminocyclopropyl)-3-((methylsulfinyl)methyl)phenyl)amino)-7-(cyclopropylamino)pyrazolo[1,5-a]pyrimidine-3-carbonitrile mono trifluoroacetic acid salt]
22 | 78 to 82 °C | CN(CCN)c1ccc(Nc2nc(NC3CC3)n3ncc(C#N)c3n2)cc1C[S+](C)[O-] (racemic) (as salt: trifluoroacetic acid salt) [Example 51, (±)-2-((4-((2-aminoethyl)(methyl)amino)-3-((methylsulfinyl)methyl)phenyl)amino)-4-(cyclopropylamino)pyrazolo[1,5-a][1,3,5]triazine-8-carbonitrile mono trifluoroacetic acid salt]
